Reference: patent US11433012B2, “Peptides for increasing melanin in melanocytes” (Conopco, Inc., priority 2017, dated 2022)
Each block holds one compound with its values, some of them ahead of it. Peptide text beside a SMILES is read from it.

Legend:
[1] = system: Neonatal foreskin primary human epidermal melanocytes; assay: Melanin content assay (OD405 nm of cell lysate); format: cell-based; conditions: for % Melanin / OD405 nm / % Increase in Melanin / Normalized melanin content / Normalized melanin content at 0.25 µM: 72 hours; for Normalized melanin content at 0.25 µM: Homo sapiens, Melanocyte, read-out: Normalized melanin content, 100*(% Melanin Content)/(% Cellular viability); for Increase in melanin content of melanocytes (in words): data of Table 2
Protocol: (§1) All test compounds were purchased from SIGMA-ALDRICH as stocks of 10 mM in 100% DMSO. They were tested at various concentrations in cell culture (see below). Forskolin (SIGMA Cat. #F6886) and IBMX (SIGMA Cat. #I5879) were used as reference comparators, as they have been reported to increase melanin content. Neonatal foreskin primary human epidermal melanocytes were procured from Cascade Biologicals (labelled passage P0). Melanocytes were maintained in Medium 254CF (Cascade Cat. #M-254CF-500) supplemented with human melanocyte growth supplement (Cascade; Cat. #S-002-5), hereafter referred to as MGM. Cells were maintained at 37° C. in a humidified incubator with 5% CO2 atmosphere.
(§2) 50,000 cells were seeded in 24 well plate in MGM; after 24 hours, cultures were treated with various concentrations of the test materials and left undisturbed for a further period of 72 hours. Comparative vehicle controls of 0.25% (v/v) DMSO were also set up in parallel, simultaneously. At the end of the incubation period, cell viability was determined using the calcein method.
After calcein fluorescence readings were obtained, cells were drained and added fresh 125 μl of 1N NaOH (in 10% DMSO) per well. Cells were lysed by resuspension and incubation (60° C./1 hour). Then this lysate was transferred to a fresh […] and measured OD405 nm in a TECAN M1000 plate reader (estimate of relative melanin content).
(§3) Calcein fluorescence values were ratio converted in 0 to 100 scale (% viability), with 100 representing the value of the 0.25% DMSO sample. % Melanin content was calculated as the ratio between OD405nm value of any sample to that of DMSO reference sample. Normalized melanin content value was then calculated as 100*(% Melanin Content)/(% Cellular viability).
The percentage Increase in melanin content was estimated as [(Normalized melanin content)−100]

[2] = system: Neonatal foreskin primary human epidermal melanocytes; assay: Cell viability by the calcein method; format: cell-based
Protocol: as §1, §2
Briefly, cell culture spent media was removed and cells washed once with 0.4 ml of 1×PBS—Ca—Mg solution. Fresh 1 μM calcein-AM was added (0.2 ml/well), including to control wells without cells. Plates were covered with aluminium foil and incubated for 30 minutes. at 37° C. in the regular CO2 incubator. Calcein fluorescence was then measured (λmax 490 nm and λmax 520 nm) in TECAN® M1000 Infinite series plate reader.
as §3

Tyrosinase = biological target: T1, Tyrosinase (Homo sapiens, UniProt P14679); assay: Tyrosinase assay; format: biochemical; conditions: 0.25 μM
T1 sequence (P14679 19-529): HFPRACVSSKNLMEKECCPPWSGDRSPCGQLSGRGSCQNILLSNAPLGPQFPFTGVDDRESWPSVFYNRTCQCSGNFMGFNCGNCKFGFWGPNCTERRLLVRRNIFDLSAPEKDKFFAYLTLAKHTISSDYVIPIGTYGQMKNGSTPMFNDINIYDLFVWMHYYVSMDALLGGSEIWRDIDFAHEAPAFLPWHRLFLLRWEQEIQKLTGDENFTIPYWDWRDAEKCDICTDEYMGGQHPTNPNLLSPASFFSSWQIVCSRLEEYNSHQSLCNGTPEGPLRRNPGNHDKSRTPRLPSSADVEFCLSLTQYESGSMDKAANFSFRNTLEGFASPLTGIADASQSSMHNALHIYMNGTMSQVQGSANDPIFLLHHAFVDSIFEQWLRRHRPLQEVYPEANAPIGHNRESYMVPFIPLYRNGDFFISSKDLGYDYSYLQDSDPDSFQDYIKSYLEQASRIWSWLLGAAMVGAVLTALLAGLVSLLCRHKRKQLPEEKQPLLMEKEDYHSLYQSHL

[3] = 0.25 μM, relative to DMSO control
[4] = 0.25 μM, normalized melanin content minus 100

- % increase in Tyrosinase activity (Tyrosinase): 0.8%
SMILES: C[C@@H](O)[C@H](NC(=O)OCc1ccccc1)C(=O)N[C@@H](Cc1ccc(O)cc1)C(N)=O [Compound 4, Benzyl (1S,2R)-1-({[(1S)-2-amino-1-(4-hydroxybenzyl)-2-oxoethyl]amino}carbonyl)-2-hydroxypropylcarbamate.] (HELM PEPTIDE1{[O=C(OCc1ccccc1)[*:2]].T.Y.[am]}$$$$V2.0)
- % Melanin [1, 3]: 102.7%
- OD405 nm ([1]; 0.25 μM, control 0.113): 0.116
- % Increase in Melanin [1, 4]: −6.6%
- Normalized melanin content at 0.25 µM ([1]; 0.25 μM): 93.4%
- % Viability ([2]; human, 72 h, 0.25 μM): 110%

- % increase in Tyrosinase activity (Tyrosinase): 1.8%
SMILES: CSCC[C@H](NC(=O)OCc1ccccc1)C(=O)N[C@@H](Cc1c[nH]c2ccccc12)C(=O)O [Compound 3, (2S)-2-{[(2S)-2-{[(benzyloxy)carbonyl]amino}-4-(methylthio)butanoyl]amino}-3-(1H-indol-3-yl)propanoic acid] (HELM PEPTIDE1{[O=C(OCc1ccccc1)[*:2]].M.W}$$$$V2.0)
- % Melanin [1, 3]: 106.2%
- OD405 nm ([1]; 0.25 μM, control 0.113): 0.120
- % Increase in Melanin [1, 4]: 7.3%
- Normalized melanin content at 0.25 µM ([1]; 0.25 μM): 107%
- Increase in melanin content of melanocytes (in words) [1]: not
- % Viability ([2]; human, 72 h, 0.25 μM): 99%

Further lines, the compound ahead of its results:

SMILES: CC(C)[C@H](NC(=O)OCc1ccccc1)C(=O)N[C@@H](Cc1ccc(O)cc1)C(N)=O [Compound 2, Benzyl (1S)-1-({[(1S)-2-amino-1-(4-hydroxybenzyl)-2-oxoethyl]amino}carbonyl)-2-methylpropylcarbamate] (HELM PEPTIDE1{[O=C(OCc1ccccc1)[*:2]].V.Y.[am]}$$$$V2.0)
- % Melanin [1, 3]: 110.6%
- OD405 nm ([1]; 0.25 μM, control 0.113): 0.125
- % Increase in Melanin [1, 4]: 36.5%
- % Increase in Melanin ([1]; 1.5 μM): 16.9%
- % Melanin ([1]; 1.5 μM): 106.7%
- Normalized melanin content ([1]; 1.5 μM): 116.9
- OD405 nm ([1]; 1.5 μM, control 0.165): 0.176
- % Increase in Melanin ([1]; 3.125 μM): 23.2%
- % Melanin ([1]; 3.125 μM): 111.5%
- Normalized melanin content ([1]; 3.125 μM): 123.2
- OD405 nm ([1]; 3.125 μM, control 0.165): 0.184
- % Increase in Melanin ([1]; 6.25 μM): 14.7%
- % Melanin ([1]; 6.25 μM): 114.5%
- Normalized melanin content ([1]; 6.25 μM): 114.7
- OD405 nm ([1]; 6.25 μM, control 0.165): 0.189
- % Increase in Melanin ([1]; 12.5 μM): 26.5%
- % Melanin ([1]; 12.5 μM): 121.2%
- Normalized melanin content ([1]; 12.5 μM): 126.5
- OD405 nm ([1]; 12.5 μM, control 0.165): 0.200
- % Increase in Melanin ([1]; 25 μM): 42.2%
- % Melanin ([1]; 25 μM): 131.5%
- Normalized melanin content ([1]; 25 μM): 142.2
- OD405 nm ([1]; 25 μM, control 0.165): 0.217
- % Increase in Melanin ([1]; 50 μM): 25.8%
- % Melanin ([1]; 50 μM): 126.6%
- Normalized melanin content ([1]; 50 μM): 125.8
- OD405 nm ([1]; 50 μM, control 0.165): 0.209
- Normalized melanin content at 0.25 µM ([1]; 0.25 μM): 136%
- Increase in melanin content of melanocytes (in words) [1]: substantial increase in melanin content
- Extent of increase in melanin content versus reference molecules (in words) ([1]; data of Table 3): comparable to known standard reference molecules (Forskolin and IBMX)
- % Viability ([2]; human, 72 h, 0.25 μM): 81%
- % Viability ([2]; human, 72 h, 1.5 μM): 91.3%
- % Viability ([2]; human, 72 h, 3.125 μM): 90.5%
- % Viability ([2]; human, 72 h, 6.25 μM): 99.8%
- % Viability ([2]; human, 72 h, 12.5 μM): 95.8%
- % Viability ([2]; human, 72 h, 25 μM): 92.5%
- % Viability ([2]; human, 72 h, 50 μM): 100.6%
- % increase in Tyrosinase activity (Tyrosinase): 2.0%

SMILES: O=C(N[C@@H](CO)C(=O)N[C@@H](Cc1ccc(O)cc1)C(=O)OCc1ccccc1)OCc1ccccc1 [Compound 1, Benzyl (2S)-2-[((2S)-2-{[(benzyloxy)carbonyl]amino}-3-hydroxypropanoyl)amino]-3-(4-hydroxyphenyl)propanoate.] (HELM PEPTIDE1{[O=C(OCc1ccccc1)[*:2]].S.Y.[c1ccc(CO[*:1])cc1]}$$$$V2.0)
- % Melanin [1, 3]: 135.4%
- OD405 nm ([1]; 0.25 μM, control 0.113): 0.153
- % Increase in Melanin [1, 4]: 26.5%
- % Increase in Melanin ([1]; 3.125 μM): 17.9%
- % Melanin ([1]; 3.125 μM): 107.3%
- Normalized melanin content ([1]; 3.125 μM): 117.9
- OD405 nm ([1]; 3.125 μM, control 0.165): 0.177
- % Increase in Melanin ([1]; 6.25 μM): 20.6%
- % Melanin ([1]; 6.25 μM): 115.2%
- Normalized melanin content ([1]; 6.25 μM): 120.6
- OD405 nm ([1]; 6.25 μM, control 0.165): 0.190
- % Increase in Melanin ([1]; 12.5 μM): 33.3%
- % Melanin ([1]; 12.5 μM): 118.2%
- Normalized melanin content ([1]; 12.5 μM): 133.3
- OD405 nm ([1]; 12.5 μM, control 0.165): 0.195
- % Increase in Melanin ([1]; 25 μM): 34.0%
- % Melanin ([1]; 25 μM): 120.6%
- Normalized melanin content ([1]; 25 μM): 134.0
- OD405 nm ([1]; 25 μM, control 0.165): 0.199
- Normalized melanin content at 0.25 µM ([1]; 0.25 μM): 126%
- % Viability ([2]; human, 72 h, 0.25 μM): 107%
- % Viability ([2]; human, 72 h, 3.125 μM): 91.0%
- % Viability ([2]; human, 72 h, 6.25 μM): 95.5%
- % Viability ([2]; human, 72 h, 12.5 μM): 88.7%
- % Viability ([2]; human, 72 h, 25 μM): 90.0%
- % increase in Tyrosinase activity (Tyrosinase): 3.5%

SMILES: C=C[C@@]1(C)CC(=O)[C@]2(O)[C@@]3(C)[C@@H](O)CCC(C)(C)[C@@H]3[C@H](O)[C@H](OC(C)=O)[C@@]2(C)O1 [Forskolin, reference compound]
- % Increase in Melanin ([1]; 2.5 μM): 16.6%
- % Melanin ([1]; 2.5 μM): 111.5%
- Normalized melanin content ([1]; 2.5 μM): 116.6
- OD405 nm ([1]; 2.5 μM, control 0.165): 0.184
- % Increase in Melanin ([1]; 5 μM): 29.2%
- % Melanin ([1]; 5 μM): 122.5%
- Normalized melanin content ([1]; 5 μM): 129.2
- OD405 nm ([1]; 5 μM, control 0.165): 0.202
- % Increase in Melanin ([1]; 10 μM): 36.7%
- % Melanin ([1]; 10 μM): 123.7%
- Normalized melanin content ([1]; 10 μM): 136.7
- OD405 nm ([1]; 10 μM, control 0.165): 0.204
- % Viability ([2]; 2.5 μM, 72 hours): 95.6%
- % Viability ([2]; 5 μM, 72 hours): 94.8%
- % Viability ([2]; 10 μM, 72 hours): 90.5%

SMILES: CC(C)Cn1c(=O)n(C)c(=O)c2[nH]cnc21 [IBMX, 3-isobutyl-1-methylxanthine, reference compound]
- % Increase in Melanin ([1]; 12.5 μM): 16.6%
- % Melanin ([1]; 12.5 μM): 116.7%
- Normalized melanin content ([1]; 12.5 μM): 116.6
- OD405 nm ([1]; 12.5 μM, control 0.165): 0.193
- % Increase in Melanin ([1]; 25 μM): 24.8%
- % Melanin ([1]; 25 μM): 118.8%
- Normalized melanin content ([1]; 25 μM): 124.8
- OD405 nm ([1]; 25 μM, control 0.165): 0.196
- % Increase in Melanin ([1]; 50 μM): 28.2%
- % Melanin ([1]; 50 μM): 116.7%
- Normalized melanin content ([1]; 50 μM): 128.2
- OD405 nm ([1]; 50 μM, control 0.165): 0.193
- % Viability ([2]; human, 72 h, 12.5 μM): 100.1%
- % Viability ([2]; human, 72 h, 25 μM): 95.2%
- % Viability ([2]; human, 72 h, 50 μM): 91.0%
